Laboratory results taken from US8569297B2, “1-benzyl-3-hydroxymethylindazole derivatives and use thereof in the treatment of diseases based on the expression of MCP-1 and CX3CR1” (Aziende Chimiche Riunite Angelini Francesco A.C.R.A.F. …, priority 2008, dated 2013).

What was measured:
MCP-1 [1] = assay: Measurement of the production of MCP-1 in a human monocyte line (ELISA); assay type: cell-based; details: MONO-MAC-6, 150 μM (maximum soluble concentration), 1 hour pre-incubation, MonoMac6 cells stimulated with LPS 100 ng/ml for 20 hours, supernatant ELISA, read-out: % inhibition of LPS-induced MCP-1 production (produced protein)
Experimental: (§1) The capacity of the compounds 1 and 2 to inhibit the expression of the protein MCP-1 by lipopolysaccharide (LPS)-stimulated MonoMac6 cells was evaluated. The cells were placed in 96-well plates at a concentration of 50 000 cells/well. The compounds were tested at the maximum soluble concentration given in Table 2 (in the range 30-300 μM) and incubated for 1 hour. The cells were then stimulated with LPS (100 ng/ml) for 20 hours.
The amount of MCP-1 produced was measured in the supernatants, suitably diluted with buffer, by means of an immunoenzymatic test (ELISA) using a commercial kit (ELISA MCP-1/JE, R&D Systems).
The results obtained, expressed as a percentage of inhibition, are collated in Table 2 below.

MCP-1 [2] = assay: Analysis of the gene expression of MCP-1 in a human monocyte line (real-time RT-PCR); assay type: cell-based; details: 150 μM (maximum soluble concentration), 1 hour pre-incubation; MonoMac6 cells stimulated with LPS 100 ng/ml for 4 hours
Experimental: as §1, with “compound” for “the compounds”, “1” for “1 and 2”, “of” for “of the protein”, “compound was” for “compounds were”, “1” for “2”, “4” for “20”
(§2) The total RNA was extracted from the cell pellet using the RNeasy mini kit (Qiagen), reverse-transcribed with the TaqMan Reverse transcription reagents synthesis kit (Applied Biosystems) and the cDNA obtained was used for the real-time PCR reaction. The amplification was obtained in 96-well plates using the ABI Prism 7000 sequence detection system (Applied Biosystems), by applying the following temperature profile: 50° C. for 2 minutes, 95° C. for 10 minutes and 45 cycles at 95° C. for 15 seconds and 60° C. for 1 minute. For the amplification, a set of primers and probe specific for human MCP-1 was used (Applied Biosystems, RefSeq NM_002982.3). […] Once the reaction had taken place, the fluorescence data were analysed using the ABI Prism 7000 SDS software, by calculating the threshold cycle (Ct) for each sample and subsequently performing a relative quantification via the ΔΔCt method.
The results obtained, expressed as a percentage of inhibition, are collated in Table 1 below.

CX3CR1 = assay: Analysis of the gene expression of CX3CR1 in a human monocyte line (real-time RT-PCR); assay type: cell-based; details: 150 μM (maximum soluble concentration), 1 hour pre-incubation; MonoMac6 cells stimulated with LPS 100 ng/ml for 20 hours
Experimental: as §1, with “of compound” for “of the compounds”, “1” for “1 and 2”, “of CX3CR1” for “of the protein MCP-1”, “The compound was” for “The compounds were”, “Table 3” for “Table 2”
as §2, with “CX3CR1” for “MCP-1”, “NM_001337.3).” for “NM_002982.3).”
The results obtained, expressed as a percentage of inhibition, are collated in Table 3 below.

Compound | inhibition at 150 µM (MCP-1 [1]) [%] | % inhibition of LPS-induced expression of MCP-1 (specific mRNA) (MCP-1 [2]) [%] | melting point | % inhibition of LPS-induced expression of CX3CR1 (specific mRNA) (CX3CR1) [%]
NCC(O)c1nn(Cc2ccccc2)c2ccccc12 (stereo not shown) [Compound 1, 2-amino-1-(1-benzyl-1H-indazol-3-yl)ethanol] | 73 | 64 | 126 °C (dec.) | 96
CCNCC(O)c1nn(Cc2ccccc2)c2ccccc12 (stereo not shown) [Compound 2, 1-(1-benzyl-1H-indazol-3-yl)-2-(ethylamino)ethanol] | 67 | 53 | – | 85
